Numbers after ± are expanded uncertainties.
Conditions: Liquid; for vapor or sublimation pressure: Closed cell (Static) method

CCF [fluoroethane]
Conditions | mass density [kg/m3] | vapor or sublimation pressure [kPa]
231.49 K | 822.41 ± 2.6 | 83.13 ± 2.4
234.21 K | 817.05 ± 2.6 | 94.43 ± 2.4
236.99 K | 812.28 ± 2.6 | 107.29 ± 2.4
239.38 K | 807.75 ± 2.5 | 119.32 ± 2.4
242.26 K | 802.85 ± 2.5 | 135.31 ± 2.4
244.45 K | 798.89 ± 2.5 | 148.5 ± 2.4
247.17 K | 794.45 ± 2.5 | 166.36 ± 2.4
249.55 K | 790.12 ± 2.5 | 183.2 ± 2.4
252.04 K | 784.97 ± 2.5 | 202.06 ± 2.4
254.66 K | 781.18 ± 2.5 | 223.94 ± 2.4
256.86 K | 777.42 ± 2.5 | 243.51 ± 2.4
259.79 K | 772.38 ± 2.5 | 271.62 ± 2.4
261.53 K | 769.17 ± 2.5 | 289.32 ± 2.4
264.92 K | 762.96 ± 2.5 | 326.52 ± 2.5
267.46 K | 758.21 ± 2.5 | 356.63 ± 2.5
270.02 K | 753.26 ± 2.5 | 389.01 ± 2.5
272.57 K | 748.47 ± 2.4 | 423.54 ± 2.5
275.14 K | 743.66 ± 2.4 | 460.69 ± 2.5
277.69 K | 738.45 ± 2.4 | 499.68 ± 2.5
280.25 K | 734.48 ± 2.4 | 542.23 ± 2.5
282.93 K | 728.08 ± 2.4 | 587.98 ± 2.6
285.36 K | 724.27 ± 2.4 | 633.63 ± 2.6
288.87 K | 715.99 ± 2.4 | 701.87 ± 2.6
290.5 K | 713.52 ± 2.4 | 736.6 ± 2.7
293.49 K | 706.47 ± 2.4 | 801.35 ± 2.7
296.62 K | 699.98 ± 2.4 | 874.83 ± 2.8
298.35 K | 696.18 ± 2.4 | 917.13 ± 2.8
301.4 K | 689.76 ± 2.4 | 996.4 ± 2.8
303.42 K | 685.09 ± 2.4 | 1051 ± 2.9
305.56 K | 680.24 ± 2.4 | 1111.4 ± 2.9
308.36 K | 673.98 ± 2.3 | 1195.1 ± 3
311.02 K | 667.87 ± 2.3 | 1278.7 ± 3.1
313.56 K | 661.98 ± 2.3 | 1362.7 ± 3.2
316.06 K | 655.89 ± 2.3 | 1439.2 ± 3.2
318.06 K | 650.99 ± 2.3 | 1511.1 ± 3.3
320.34 K | 645.22 ± 2.3 | 1596.5 ± 3.4
322.83 K | 638.81 ± 2.3 | 1683.8 ± 3.5
325.41 K | 632.16 ± 2.3 | 1800.8 ± 3.7
328.04 K | 625.04 ± 2.3 | 1922.5 ± 3.8
330.58 K | 617.82 ± 2.3 | 2035.8 ± 3.9
332.88 K | 609.12 ± 2.3 | 2105.8 ± 4
335.61 K | 599.54 ± 2.3 | 2262.5 ± 4.2
337.83 K | 591.63 ± 2.3 | 2369.9 ± 4.3
340.19 K | 583.39 ± 2.3 | 2489.5 ± 4.4
343.01 K | 573.25 ± 2.3 | 2639 ± 4.6

FC(F)Cl [chlorodifluoromethane]
Conditions | mass density [kg/m3] | vapor or sublimation pressure [kPa]
237.03 K | 1396.88 ± 4.5 | 125.48 ± 2.4
242.05 K | 1380.58 ± 4.5 | 156.52 ± 2.4
248.23 K | 1361.7 ± 4.4 | 202.41 ± 2.4
250.79 K | 1352.02 ± 4.3 | 223.86 ± 2.4
257.12 K | 1333.18 ± 4.3 | 285.6 ± 2.5
262.27 K | 1317.65 ± 4.2 | 343.76 ± 2.5
267.03 K | 1302.17 ± 4.2 | 405.65 ± 2.5
272.37 K | 1283.62 ± 4.1 | 485.71 ± 2.6
276.67 K | 1268.86 ± 4 | 558.12 ± 2.6
283.21 K | 1244.97 ± 3.9 | 682.58 ± 2.7
287.52 K | 1231.04 ± 3.9 | 774.37 ± 2.8
294.06 K | 1206.17 ± 3.8 | 932.29 ± 2.9
298.34 K | 1188.92 ± 3.7 | 1047.7 ± 3.1
303.44 K | 1168.12 ± 3.6 | 1201.9 ± 3.2
306.98 K | 1156.73 ± 3.6 | 1316.4 ± 3.4

— the NIST ThermoML archive (doi:10.1021/je2000827)
